From patent publication US10323036B2 (Nimbus Lakshmi, Inc., priority 2016, dated 2019)
pKd: −log10 of the molar value.

Biological target: human TYK2 (JH2domain-pseudokinase) (Homo sapiens (Human), UniProt P29597)
Test: TYK2 JH2 Domain Binding Assay (KINOMEscan)
Settings: Table 4, JH2 binding assay; read-out: JH2 Kd

Chain of human TYK2 (JH2domain-pseudokinase) (P29597 556-888): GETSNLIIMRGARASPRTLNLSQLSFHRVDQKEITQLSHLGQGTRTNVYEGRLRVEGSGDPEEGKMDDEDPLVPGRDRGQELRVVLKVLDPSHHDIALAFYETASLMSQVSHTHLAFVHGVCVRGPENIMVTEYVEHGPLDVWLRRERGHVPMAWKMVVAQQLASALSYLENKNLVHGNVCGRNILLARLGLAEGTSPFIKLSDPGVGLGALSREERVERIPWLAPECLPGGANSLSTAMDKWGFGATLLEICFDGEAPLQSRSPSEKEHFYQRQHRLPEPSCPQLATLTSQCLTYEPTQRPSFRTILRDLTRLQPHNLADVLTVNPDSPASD

| pKd | Structure (SMILES) |
| --- | --- |
| 8.00 to 9.00 | Cn1[nH]c2nc(Nc3cncc(C#N)n3)cc(Nc3ccccc3S(C)(=O)=O)c2c1=O [Compound I-119, 6-((2-methyl-4-((2-(methylsulfonyl)phenyl)amino)-3-oxo-2,3-dihydro-1H-pyrazolo[3,4-b]pyridin-6-yl)amino)pyrazine-2-carbonitrile] |
| < 8.00 | COc1c(C#N)cccc1Nc1cc(Nc2ccc(N3CCCCC3)cn2)nc2[nH]n(C)c(=O)c12 [Compound I-40] |
| 9.30 to 10.00 | COc1c(Nc2cc(Nc3cc(C)ccn3)nc3[nH]n(C)c(=O)c23)cccc1-c1ncn(C)n1 [Compound I-18, 4-((2-methoxy-3-(1-methyl-1H-1,2,4-triazol-3-yl)phenyl)amino)-2-methyl-6-((4-methylpyridin-2-yl)amino)-1,2-dihydro-3H-pyrazolo[3,4-b]pyridin-3-one] |
| 8.00 to 9.00 | COc1c(Nc2cc(Nc3cc(CO)ccn3)nc3[nH]n(C)c(=O)c23)cccc1-c1ncn(C)n1 [Compound I-19, 6-((4-(hydroxymethyl)pyridin-2-yl)amino)-4-((2-methoxy-3-(1-methyl-1H-1,2,4-triazol-3-yl)phenyl)amino)-2-methyl-1,2-dihydro-3H-pyrazolo[3,4-b]pyridin-3-one] |
| 9.00 to 9.30 | COc1c(F)cccc1Nc1cc(Nc2cncc(C#N)n2)nc2[nH]n(C)c(=O)c12 [Compound I-85, 6-((4-((3-fluoro-2-methoxyphenyl)amino)-2-methyl-3-oxo-2,3-dihydro-1H-pyrazolo[3,4-b]pyridin-6-yl)amino)pyrazine-2-carbonitrile] |
| 9.30 to 10.00 | COc1c(Nc2cc(Nc3ccc(C)cn3)nc3[nH]n(C)c(=O)c23)cccc1-c1nnn(C)n1 [Compound I-3, 4-((2-methoxy-3-(2-methyl-2H-tetrazol-5-yl)phenyl)amino)-2-methyl-6-((5-methylpyridin-2-yl)amino)-1,2-dihydro-3H-pyrazolo[3,4-b]pyridin-3-one] |
| 9.30 to 10.00 | COc1c(Nc2cc(Nc3ccccn3)nc3[nH]n(C)c(=O)c23)cccc1-c1nnn(C)n1 [Compound I-4, 4-((2-methoxy-3-(2-methyl-2H-tetrazol-5-yl)phenyl)amino)-2-methyl-6-(pyridin-2-ylamino)-1,2-dihydro-3H-pyrazolo[3,4-b]pyridin-3-one] |
| 9.00 to 9.30 | COCc1ccnc(Nc2cc(Nc3cccc(Cl)c3OC)c3c(=O)n(C)[nH]c3n2)c1 [Compound I-97, 4-((3-chloro-2-methoxyphenyl)amino)-6-((4-(methoxymethyl)pyridin-2-yl)amino)-2-methyl-1,2-dihydro-3H-pyrazolo[3,4-b]pyridin-3-one] |

| Structure (SMILES) | pKd |
| --- | --- |
| CN(c1cc(N2CCC2)ccc1Nc1cc(NC(=O)C2CC2)nc2[nH]n(C)c(=O)c12)S(C)(=O)=O [Compound I-219, N-(4-((4-(azetidin-1-yl)-2-(N-methylmethylsulfonamido)phenyl)amino)-2-methyl-3-oxo-2,3-dihydro-1H-pyrazolo[3,4-b]pyridin-6-yl)cyclopropanecarboxamide] | 9.30 to 10.00 |
| COCc1ccnc(Nc2cc(Nc3cccc(C(N)=O)c3OC)c3c(=O)n(C)[nH]c3n2)c1 [Compound I-126, 2-methoxy-3-((6-((4-(methoxymethyl)pyridin-2-yl)amino)-2-methyl-3-oxo-2,3-dihydro-1H-pyrazolo[3,4-b]pyridin-4-yl)amino)benzamide] | < 8.00 |
| COc1cc(C(=O)N2CCOCC2)ccc1Nc1cc(NC(=O)C2CC2)nc2[nH]n(C)c(=O)c12 [Compound I-71, N-(4-((2-methoxy-4-(morpholine-4-carbonyl)phenyl)amino)-2-methyl-3-oxo-2,3-dihydro-1H-pyrazolo[3,4-b]pyridin-6-yl)cyclopropanecarboxamide] | 9.00 to 9.30 |
| COc1c(Nc2cc(NC(=O)C3CC3)nc3[nH]n(C)c(=O)c23)cccc1N1CCCC1=O [Compound I-88, N-(4-((2-methoxy-3-(2-oxopyrrolidin-1-yl)phenyl)amino)-2-methyl-3-oxo-2,3-dihydro-1H-pyrazolo[3,4-b]pyridin-6-yl)cyclopropanecarboxamide] | 8.00 to 9.00 |
| CN(c1cc(C2CC2)ccc1Nc1cc(NC(=O)C2CC2)nc2[nH]n(C)c(=O)c12)S(C)(=O)=O [Compound I-232] | > 10.00 |
